Where two headings read alike, the source gives them in different places.
Assays:
A549 lung cancer cells = assay: Cell growth inhibition (CellTiter-Glo ATP assay), A549 cells with mutant K-Ras; format: cell-based, human; settings: for IC50: Homo sapiens, A549, 72 h, growth inhibition, three days treatment, K-Ras mutant lung cancer cells, read-out: A549 (Ras-activated) IC50; for Selectivity HT-29/A549: ratio IC50 HT-29 (WT Ras) / IC50 A549 (Ras-activated)
Protocol: This example illustrates cell growth assays employed in the present invention. Cells used in such assays included A-549, HT-29, MDA-MB-231, Colo-205, Caco2, HCT-116, SW-480, and DLD-1 human cancer cells obtained from the American Type Culture Collection (ATCC).
(§1) Human tumor cells were cultured using standard methods in RPMI-1640 growth medium supplemented with 5% fetal bovine serum (FBS). Normal rat kidney (NRK) and Ki-Ras transformed NRK cells (K-NRK) were obtained from ATCC, and were cultured according to supplier recommendations. CellTiter-Glo ATP cell growth assay reagents were obtained from Promega and used according to the manufacturer's protocol. Inhibitors of EGFR, Raf, and MEK were obtained from Selleck Chemicals. Cells were plated at a density of 5,000 cells per well in 96-well microplates or 1,250 cells per well in 384-well plates, and allowed to attach for at least 4 h. Test compounds were dissolved in dimethyl sulfoxide (DMSO), and this working stock was further diluted in growth medium for addition to cell cultures. Serial dilutions of the test compound were prepared in growth medium containing an equal amount of DMSO not exceeding 0.2% final concentration. Each compound concentration was tested in at least 3 separate samples per cell line. At the end of a 3-day treatment period, growth inhibition was analyzed using a bioluminescent assay of ATP concentration (Promega CellTiter-Glo) according to the manufacturer's protocol. Resulting luminescence was measured using the luminescence cartridge of the Molecular Devices Spectramax Paradigm microplate reader. Relative growth inhibition for each sample was determined by comparison with the values obtained for vehicle treated control samples. Growth inhibition values were plotted with the GraphPad Prism5 software using the 4-parameter logistic fit to obtain IC50 values, which corresponds to the growth inhibitory potency of the compound.
(§2) This example illustrates effects of exemplary compounds of the present invention on cancer cells having activated or mutated Ras compared to wild-type (WT) Ras. […] A549 lung cancer cells, which harbor a mutation in the K-Ras oncogene were treated for three days with the compounds.

HT-29 colon cancer cells = assay: Cell growth inhibition (CellTiter-Glo ATP assay), HT-29 cells with wild-type Ras; format: cell-based, human
Protocol: (§3) This example illustrates cell growth assays employed in the present invention.
as §1, with “Normal” for “Human tumor cells were cultured using standard methods in RPMI-1640 growth medium supplemented with 5% fetal bovine serum (FBS). Normal”
as §2
(§4) Cells were seeded in 384-well plates and allowed to attach. Ten-fold serial dilutions of compounds were tested. Each compound concentration was tested in at least 3 separate samples per cell line.

SW-480 cells = assay: Cell growth inhibition (CellTiter-Glo), SW-480 colorectal cells with activated Ras; format: cell-based, human; settings: for IC50: 384-well plates; for Selectivity Caco-2/SW-480: ratio IC50 Caco-2 (WT Ras) / IC50 SW-480 (Ras activated)
Protocol: as §3
as §1, with “Normal” for “Human tumor cells were cultured using standard methods in RPMI-1640 growth medium supplemented with 5% fetal bovine serum (FBS). Normal”
The growth inhibitory activity of the compounds was tested using the CellTiter-Glo assay. Cells were seeded in 384-well plates and allowed to attach, then ten-fold serial dilutions of compounds were tested. Each concentration was tested in at least 3 separate samples per cell line.
as §4

Caco-2 cells = assay: Cell growth inhibition (CellTiter-Glo), Caco-2 colorectal cells with wild-type Ras; format: cell-based, human; settings: 384-well plates
[1] = tested on: HCT-116 colon tumor cells; assay: Cell growth inhibition (CellTiter-Glo), HCT-116 colon tumor cells expressing mutant Ras; format: cell-based, human; settings: for HT-29/HCT-116 selectivity values: ratio IC50 HT-29 (WT Ras) / IC50 HCT-116 (mutant Ras), 5000 cells/well, 96-well plates
Protocol: This example illustrates cell growth assays employed in the present invention. […] Normal rat kidney (NRK) and Ki-Ras transformed NRK cells (K-NRK) were obtained from ATCC, and were cultured according to supplier recommendations. CellTiter-Glo ATP cell growth assay reagents were obtained from Promega and used according to the manufacturer's protocol. Inhibitors of EGFR, Raf, and MEK were obtained from Selleck Chemicals. Cells were plated at a density of 5,000 cells per well in 96-well microplates or 1,250 cells per well in 384-well plates, and allowed to attach for at least 4 h. Test compounds were dissolved in dimethyl sulfoxide (DMSO), and this working stock was further diluted in growth medium for addition to cell cultures. Serial dilutions of the test compound were prepared in growth medium containing an equal amount of DMSO not exceeding 0.2% final concentration. Each compound concentration was tested in at least 3 separate samples per cell line. At the end of a 3-day treatment period, growth inhibition was analyzed using a bioluminescent assay of ATP concentration (Promega CellTiter-Glo) according to the manufacturer's protocol. Resulting luminescence was measured using the luminescence cartridge of the Molecular Devices Spectramax Paradigm microplate reader. Relative growth inhibition for each sample was determined by comparison with the values obtained for vehicle treated control samples. […] This example illustrates use of well-established human colon tumor cell lines with widely divergent Ras activation status to determine selectivity values for exemplary compounds of the present invention. […] Cells were plated at 5000 cells/well in 96-well plates, and viable cell numbers were measured using the Cell Titer Glo ATP luminescence assay (Promega). […] Cells were seeded in 384-well plates and allowed to attach. Ten-fold serial dilutions of compounds were tested. Each compound concentration was tested in at least 3 separate samples per cell line.

[2] = tested on: cells expressing oncogenic H-Ras; settings: NIH probe report, cited from earlier work
DLD-1 cells = assay: Cell growth inhibition (CellTiter-Glo), DLD-1 colorectal cells; format: cell-based, human; settings: known Ras pathway inhibitors, 384-well plates, Table 4
COLO-205 cells = assay: Cell growth inhibition (CellTiter-Glo), COLO-205 colorectal cells; format: cell-based, human; settings: known Ras pathway inhibitors, 384-well plates, Table 4
[3] = tested on: panel of colorectal cancer cell lines; assay: Growth inhibition of known Ras pathway inhibitors across the colorectal cell line panel, pattern versus Ras activation; format: cell-based, human; settings: HCT-116, DLD-1, SW-480, Caco-2, HT-29, COLO-205 panel
Protocol: This example illustrates non-selective growth inhibition with known Ras pathway inhibitors which are not compounds of the present invention. In particular, the growth inhibitory activity of commercially available compounds which are active in the Ras signal transduction pathway were tested in the same panel of cell lines using the CellTiter-Glo assay. Cells were seeded in 384-well plates and allowed to attach. Ten-fold serial dilutions of compounds were tested. Each compound concentration was tested in at least 3 separate samples per cell line.

[4] = Homo sapiens, HT-29, growth inhibition, colon cancer cells with wild-type Ras, Table 2, read-out: HT-29 (WT Ras) IC50
[5] = Homo sapiens, SW480, growth inhibition, Table 3, read-out: SW-480 (Ras Activated IC50)
[6] = Homo sapiens, Caco-2, growth inhibition, Table 3, read-out: Caco-2 (WT Ras) IC50

## COc1cc(/C=C2/C(C)=C(CC(=O)NCc3cccnc3)c3cc(F)ccc32)cc(OC)c1O [Compound 011, (Z)-2-(5-fluoro-1-(4-hydroxy-3,5-dimethoxybenzylidene)-2-methyl-1H-inden-3-yl)-N-(pyridin-3-ylmethyl)acetamide]
A549 lung cancer cells
  IC50: 0.015 µM
  Selectivity HT-29/A549: 196
HT-29 colon cancer cells; [4]
  IC50: 2.94 µM
SW-480 cells; [5]
  IC50: 0.0213 µM
SW-480 cells
  Selectivity Caco-2/SW-480: 2
Caco-2 cells; [6]
  IC50: 0.0476 µM
[1]
  HT-29/HCT-116 selectivity values: 168

## COc1cc(/C=C2/C(C)=C(CC(=O)NCc3ccco3)c3cc(F)ccc32)cc(OC)c1O [Compound 007, (Z)-2-(5-fluoro-1-(4-hydroxy-3,5-dimethoxybenzylidene)-2-methyl-1H-inden-3-yl)-N-(furan-2-ylmethyl)acetamide]
A549 lung cancer cells
  IC50: 0.00086 µM
  Selectivity HT-29/A549: 326
HT-29 colon cancer cells; [4]
  IC50: 0.28 µM
SW-480 cells; [5]
  IC50: 0.00037 µM
SW-480 cells
  Selectivity Caco-2/SW-480: 5
Caco-2 cells; [6]
  IC50: 0.00197 µM
[1]
  HT-29/HCT-116 selectivity values: 92

## COc1ccc2c(c1)C(CC(=O)NCc1ccco1)=C(C)/C2=C/c1cc(OC)c(O)c(OC)c1 [Compound 006, (Z)—N-(furan-2-ylmethyl)-2-(1-(4-hydroxy-3,5-dimethoxybenzylidene)-5-methoxy-2-methyl-1H-inden-3-yl)acetamide]
A549 lung cancer cells
  IC50: 0.011 µM
  Selectivity HT-29/A549: 739
HT-29 colon cancer cells; [4]
  IC50: 8.13 µM
SW-480 cells; [5]
  IC50: 0.00285 µM
SW-480 cells
  Selectivity Caco-2/SW-480: 150
Caco-2 cells; [6]
  IC50: 0.428 µM
[1]
  HT-29/HCT-116 selectivity values: 43

## Cc1onc(C(=O)N2CCN(C(c3ccc(Cl)cc3)c3ccc(Cl)cc3)CC2)c1[N+](=O)[O-] [ML210]
[2]
  selectivity versus cells lacking oncogenic Ras: 4 fold
[2]; read-out: IC50, growth of cells expressing mutant Ras
  IC50: 0.071 µM

## COc1cc(/C=C2/C(C)=C(CC(=O)NCc3ccccn3)c3cc(F)ccc32)cc(OC)c1O [Compound 010, (Z)-2-(5-fluoro-1-(4-hydroxy-3,5-dimethoxybenzylidene)-2-methyl-1H-inden-3-yl)-N-(pyridin-2-ylmethyl)acetamide]
A549 lung cancer cells
  IC50: 0.17 µM
  Selectivity HT-29/A549: 4
HT-29 colon cancer cells; [4]
  IC50: 0.712 µM
SW-480 cells; [5]
  IC50: 0.0021 µM
SW-480 cells
  Selectivity Caco-2/SW-480: 16
Caco-2 cells; [6]
  IC50: 0.0338 µM
[1]
  HT-29/HCT-116 selectivity values: 141

## O=C1Nc2ccc(I)cc2/C1=C/c1cc(Br)c(O)c(Br)c1 [GW5074, reference compound]
HT-29 colon cancer cells; known Ras pathway inhibitors, 384-well plates, Table 4, read-out: HT-29 IC50
  IC50: 19.1 µM
SW-480 cells; known Ras pathway inhibitors, Table 4, read-out: SW-480 IC50
  IC50: 8.07 µM
Caco-2 cells; known Ras pathway inhibitors, Table 4, read-out: Caco-2 IC50
  IC50: > 20 µM
[1]; known Ras pathway inhibitors, 384-well plates, Table 4
  IC50: 15.8 µM
DLD-1 cells
  IC50: 7.75 µM
COLO-205 cells
  IC50: 7.1 µM
[3]
  selectivity with regard to Ras activation: did not show selectivity

## Cn1cnc2c(F)c(Nc3ccc(Br)cc3Cl)c(C(=O)NOCCO)cc21 [Selumetinib]
DLD-1 cells; Homo sapiens, DLD-1
  IC50: 20.4 µM
